According to patent EP1963277B1, “FLUORINATED COMPOUNDS” (priority 2005, dated 2007):
Read-outs that look alike come from different tables or passages of the source.

Assays:
Type in all cases: in vivo
FCA-treated rats [1] = experiment: Freund's Complete Adjuvant (FCA) model, mechanical allodynia (modified Randall-Selitto method); conditions: p.o.
Protocol: (§1) Administration of FCA to the hind paw of an animal induces the formation of a localized edema and has been widely used as a model of chronic inflammatory pain. 100 µl of FCA is injected subcutaneously into the dorsal aspect of the left hind paw of the rats. The edema appears within 2 h reaches a peak by 6h and lasts for about 7 days. The effects of compounds on mechanical allodynia and paw volume were studied 2 days after FCA administration.
The effect of the compounds in alleviating mechanical allodynia was assessed in the FCA-treated rats using the modified Randall-Selitto method (Analgesy-Meter, Ugo Basile, Italy). The animal's paw is placed on a small plinth under a cone-shaped pusher. Increasing force is applied to the paw by depressing a pedal until vocalization or withdrawal of the paw occurs. The minimum force required to elicit this vocalization/withdrawal is the paw pressure threshold. The cut-off was set at 150 g.
After the initial basal (control) readings were taken, the test compound (60 mg/kg)/vehicle was administered orally in a volume of 10 ml/kg. The paw pressure thresholds were measured 30, 60 and 180 min post administration. […] Some of the compounds were effective even at 60 and 180 min post administration.

FCA-treated rats [2] = experiment: Freund's Complete Adjuvant (FCA) model, paw edema/volume (plethysmometer); conditions: p.o.
Protocol: as §1
The edema/volume of the paw is a measure of inflammation induced by FCA. This was measured by using a plethysmometer (Ugo Basile, Italy). In this, the paw of the rat is immersed in a reservoir of water and the volume of water displaced indicates the paw volume.
After the initial basal (control) readings were taken, the test compound (60 mg/kg)/vehicle was administered orally in a volume of 10 ml/kg.

rats = experiment: Persistent Inflammatory Pain (Formalin Model); conditions: Rattus norvegicus, formalin test, 30 min pretreatment; for inhibition at 30 mg/kg: ip, i.p.; for inhibition at 60 mg/kg: po, p.o.
Protocol: The formalin test is a chemically-induced tonic pain model in which injection of formalin into a hind paw elicits a biphasic nociceptive behavior. The second phase of formalin response is predominantly due to a central sensitization phenomenon. Most clinically used drugs against neuropathic pain arc active on this second phase of formalin response. Formalin test is accepted as a valid model of persistent clinical pain.
The test was done by pretreating the rats with the test compound and 30 min later (pretreatment time), 50 µl of 2.5% formalin was injected into the right hind paw of the animal. The number of paw licking and flinching episodes were scored for 60 min post-formalin injection.
The compounds were administered either intraperitoneally (30 mg/kg) or orally (60 mg/kg).

Male, CD-1 mice = experiment: Maximal Electroshock Assay (mouse); conditions: for ED50: oral pretreatment, range in parentheses
Protocol: Male, CD-1 mice (20-30g body weight) were orally pretreated with test compound or vehicle control, and either at 1h or 4h post dose a maximal electroshock (45mA amplitude, 0.2s duration, 60Hz) was applied by corneal electrodes. Protection was defined by the absence of a tonic extensor seizure in the animal within 20s of application of the electrical stimulus, which typically occurred in all vehicle pretreated animals. Animals received only one electroshock and so separate animals were used for the 1h and 4h timepoints. All drugs were administered in multiple doses.

SNI rats [3] = experiment: Spared Nerve Injury (SNI) model, cold allodynia (acetone test); conditions: for duration (s) of nociceptive response, Post Admin 30 min: *** P<0.001 vs Pre-Admin.; for duration (s) of nociceptive response, Pre-Admin. 0 min: baseline before administration
Protocol: (§2) The compounds were tested for their efficacy in reducing mechanical allodynia and cold allodynia in the spared nerve injury (SNI) model of chronic neuropathic pain. In this model, the left sciatic nerve of the rat is exposed under anesthesia. Two of the branches of the sciatic nerve viz. the common peroneal and tibial nerve are ligated and sectioned. The third branch (sural nerve) is left intact. The animals were allowed a post-operative recovery period of 7 days before they were subjected to any test.
Cold allodynia was assessed by using the acetone test. In this model, 25 µl of acetone is sprayed on to the plantar surface of the hind paw. Evaporation of acetone causes cooling of the skin. The cold stimulus sets up nociceptive responses from the injured paw as evidenced by paw lifting, paw licking and grooming. The duration of the nociceptive responses is noted.
Testing of compounds was done after 21 days post-operatively. After initial basal readings were taken, the test compound or the vehicle was administered (10 ml/kg) either intraperitoneally (30 mg/kg) or orally (60 mg/kg). The readings were taken 30 min after the administration.

[4] = system: Male, Sprague-Dawley rats; experiment: Maximal Electroshock Assay (rat); conditions: for ED50: oral pretreatment, range in parentheses
Protocol: Male, Sprague-Dawley rats (approx. 100g body weight) were prescreened for tonic seizure susceptibility prior to drug testing. […] Protection was defined by the absence of a tonic extensor seizure in the animal within 20s of application of the electrical stimulus, which typically occurred in all vehicle pretreated animals. Animals received only one electroshock on the drug test day and so separate animals were used for the 0.5h and 4h timepoints. All drugs were administered in multiple doses.

SNI rats [5] = experiment: Spared Nerve Injury (SNI) model, mechanical allodynia (Dynamic Plantar Aesthesiometer); conditions: for withdrawal threshold, Pre-Admin. 0 min: baseline before administration
Protocol: as §2
The presence of mechanical allodynia was assessed using the Dynamic Plantar Aesthesiometer (Ugo Basile, Italy) which is a modified version of the Von Frey Hair test. In this, a test filament is positioned below the animal's hind paw and the unit is activated which causes the filament to move up and touch the plantar surface of the hind paw. Increasing force is applied to the paw via the filament. […] The cut-off force is set at 50 g. The tests were done on both the non-injured (control) and the injured (SNI) paw.
Testing of compounds was done after 21 days post-operatively. After initial basal readings were taken, the test compound or the vehicle was administered (10 ml/kg) either intraperitoneally (30 mg/kg) or orally (60 mg/kg). The readings were taken again 30, 60 and 180 min after the compound/vehicle administration.

[6] = 60 mg/kg, ** P<0.01, *** P<0.001 vs Pre-Admin.
[7] = group later given 60 mg/kg, baseline before administration
[8] = read-out: MES oral ED50 4h, mouse, electroshock 4h post dose
[9] = group later given 30 mg/kg, i.p.
[10] = group later given 60 mg/kg, p.o.
[11] = read-out: MES oral ED50 0.5h, rat, electroshock 0.5h post dose
[12] = read-out: MES oral ED50 4h, rat, electroshock 4h post dose
[13] = 30 mg/kg, i.p., *** P<0.001 vs Pre-Admin.
[14] = 60 mg/kg, p.o., *** P<0.001 vs Pre-Admin.

CC(=O)NC(COC(F)F)C(=O)NCc1ccccc1 (centres unmarked) [Compound 3, 2-(Acetylamino)-N-benzyl-3-(difluoromethoxy)propanamide]
paw withdrawal threshold (g), Post Admin 30 min (FCA-treated rats [1]; [6]): 57.8 ± 4.9** g
paw withdrawal threshold (g), Post Admin 60 min (FCA-treated rats [1]; [6]): 46.7 ± 3.8 g
paw withdrawal threshold (g), Post Admin 180 min (FCA-treated rats [1]; [6]): 37.8 ± 5.4 g
paw withdrawal threshold (g), Pre-Admin. 0 min (FCA-treated rats [1]; [7]): 32.8 ± 6.5 g
paw volume (ml), Post Admin 30 min (FCA-treated rats [2]; 60 mg/kg): 2.3 ± 0.1 mL
paw volume (ml), Post Admin 60 min (FCA-treated rats [2]; 60 mg/kg): 2.3 ± .01 mL
paw volume (ml), Pre-Admin. 0 min (FCA-treated rats [2]; [7]): 2.3 ± 0.0 mL
inhibition at 30 mg/kg (rats; *** P<0.001, read-out: %Inhibition Phase I): 87.9 ± 12.1%
inhibition at 30 mg/kg (rats; *** P<0.001, read-out: %Inhibition Phase II): 90.2 ± 6.5%
inhibition at 60 mg/kg (rats; ** P<0.01, *** P<0.001, read-out: %Inhibition Phase II): 46.1 ± 8.7%
inhibition at 60 mg/kg (rats; read-out: %Inhibition Phase I): 21.4 ± 10.2%
duration of action (Male, CD-1 mice; mouse MES, judged by similar potency at 1h and 4h pretreatment timepoints): longer than Lacosamide
Ratio ED50 4h vs. 1h (Male, CD-1 mice; mouse, oral): 3.5
shift in ED50 for 1 vs. 4h (Male, CD-1 mice; mouse, oral): 1 to 3.5 fold
ED50 (Male, CD-1 mice; mouse, electroshock 1h post dose, blockade of tonic extensor seizure, read-out: MES oral ED50 1h): 5.7 mg/kg
ED50 (Male, CD-1 mice; [8]): 20 mg/kg
duration (s) of nociceptive response, Post Admin 30 min (SNI rats [3]; 30 mg/kg, i.p.): 4.3 ± 1.6*** s
duration (s) of nociceptive response, Post Admin 30 min (SNI rats [3]; 60 mg/kg, p.o.): 17.2 ± 6.2*** s
duration (s) of nociceptive response, Pre-Admin. 0 min (SNI rats [3]; [9]): 45.8 ± 9.4 s
duration (s) of nociceptive response, Pre-Admin. 0 min (SNI rats [3]; [10]): 70.7 ± 18.9 s
duration of action ([4]; rat MES, judged by similar potency at 0.5h and 4h pretreatment timepoints): longer than Lacosamide
Ratio ED50 4h vs. 0.5h ([4]; rat, oral): 1.4
shift in ED50 for 0.5 vs. 4h ([4]; rat, oral): 1 to 1.4 fold
ED50 [4, 11]: 3 mg/kg
ED50 [4, 12]: 4.2 mg/kg
withdrawal threshold, Post Admin 30 min (SNI rats [5]; [13]): 22.5 ± 2.1*** g
withdrawal threshold, Post Admin 180 min (SNI rats [5]; [13]): 14.1 ± 1.6*** g
withdrawal threshold, Post Admin 30 min (SNI rats [5]; [14]): 19.4 ± 2.3*** g
withdrawal threshold, Post Admin 60 min (SNI rats [5]; [14]): 20.6 ± 3.1*** g
withdrawal threshold, Post Admin 180 min (SNI rats [5]; [14]): 10.8 ± 1.8 g
withdrawal threshold, Pre-Admin. 0 min (SNI rats [5]; [9]): 7.5 ± 1.4 g
withdrawal threshold, Pre-Admin. 0 min (SNI rats [5]; [10]): 9.7 ± 2.5 g

COC[C@@H](NC(C)=O)C(=O)NCc1ccccc1 [Lacosamide, R-2-acetamido-N-benzyl-3-methoxy-propanamide, reference compound]
ED50 (Male, CD-1 mice; [8]): 32 mg/kg
ED50 [4, 11]: 1.8 mg/kg
ED50 [4, 12]: 8.3 mg/kg
